# How the values were obtained:
# AR = molecular target: T1, AR (Homo sapiens, UniProt P10275); format: cell-based; conditions: VCaP cells, 10% FBS, 10 μM, 24 hours
# T1 construct: The VCaP cells were transfected with MMTV-LUC for 24 hours; endogenous in cells; host or cells: VCaP
# T1 sequence (P10275 1-920): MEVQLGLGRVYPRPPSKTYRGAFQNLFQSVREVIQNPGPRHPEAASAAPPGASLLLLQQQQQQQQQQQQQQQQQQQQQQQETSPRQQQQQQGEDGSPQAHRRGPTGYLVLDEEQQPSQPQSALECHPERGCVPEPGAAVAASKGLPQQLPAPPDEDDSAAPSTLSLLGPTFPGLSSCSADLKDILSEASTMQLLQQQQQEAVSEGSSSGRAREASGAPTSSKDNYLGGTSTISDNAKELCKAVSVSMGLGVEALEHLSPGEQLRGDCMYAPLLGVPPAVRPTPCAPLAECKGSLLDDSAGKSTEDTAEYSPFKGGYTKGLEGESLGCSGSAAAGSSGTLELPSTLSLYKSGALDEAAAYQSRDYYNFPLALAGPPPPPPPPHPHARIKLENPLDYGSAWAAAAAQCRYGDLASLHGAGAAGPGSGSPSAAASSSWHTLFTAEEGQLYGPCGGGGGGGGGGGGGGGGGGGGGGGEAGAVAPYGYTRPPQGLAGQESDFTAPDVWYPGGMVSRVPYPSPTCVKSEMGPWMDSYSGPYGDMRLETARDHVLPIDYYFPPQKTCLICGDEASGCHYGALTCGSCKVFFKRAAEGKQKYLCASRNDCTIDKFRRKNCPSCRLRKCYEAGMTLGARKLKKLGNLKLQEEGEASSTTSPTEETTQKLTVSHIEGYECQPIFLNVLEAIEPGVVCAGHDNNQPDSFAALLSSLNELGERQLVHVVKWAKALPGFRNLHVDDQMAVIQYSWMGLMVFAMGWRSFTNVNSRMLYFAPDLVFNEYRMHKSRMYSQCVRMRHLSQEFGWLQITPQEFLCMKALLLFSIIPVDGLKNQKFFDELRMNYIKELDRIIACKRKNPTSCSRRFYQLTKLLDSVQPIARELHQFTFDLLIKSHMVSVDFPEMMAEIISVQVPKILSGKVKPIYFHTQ
# Procedure: Cells were fixed with 4% paraformaldehyde for 15 minutes at room temperature, permeabilized with immunostaining permeate for 10 minutes and blocked with 5% BSA containing 1% Tween-20 for 1 hour. After overnight Immunostain with AR Rabbit monoclonal antibody (1:400;CST,5153S) at 4° C, a Cy3 conjugated Goat Anti-Rabbit IgG (1:300; Servicebio, GB21303) reacted for 1 hour. DAPI (4’,6-diamidine-2’-phenylindole, Servicebio, G1012) stained the nuclear to bule for 10 minutes in the dark. Washing three times with PBS between each step. Immunofluorescence images were acquired by fluorescence microscopy using a NIKON ECLIPSE CI microscope (Nikon Corporation; magnification).
# PSA = PSA mRNA (qRT-PCR) and protein (Western blot) expression in VCaP cells; format: cell-based; conditions: 10 nM DHT, 24 hours
# Procedure: RNA expression level was analyzed by qRT-PCR and protein expression level was analyzed by Western blot. […] (I) Representative immunofluorescence microscopic images of VCaP cells for checking the subcellular localization of AR.
# The RNA of VCaP cells was extracted using a Simply P Total RNA Extraction kit (Bioer technology) and cDNA was synthesized using a SMARTer PCR cDNA Synthesis Kit (Clontech). PSA and β-actin primers were synthesized by Sangon Biotech according to previous literature. Real-time PCR was performed using the PowerUp SYBR™ Green kit (ThermoFisher). The PCR program was run on a LightCycler 480II (Roche) and set as follows: 2 minutes at 95° C followed by 40 cycles of 30 seconds at 95° C, 15 seconds at 60° C and 30 seconds at 72° C. Data were quantified using the 2-ΔΔCt method based on the Ct values of PSA and β-actin from two parallel experiments performed in triplicate.
# The whole-cell extracts were prepared in lysis buffer with a protease inhibitor cocktail (Bimake), while the xenograft tissue extracts were prepared in 0.5% Nonidet P 40 Substitute solution (Biosharp) with cocktail protease inhibitor (Bimake). Each sample containing 30 μg of total protein was loaded onto 10% SDS-PAGE and electrotransferred onto polyvinylidene fluoride membranes. […]
# AR-LBD = assay: AR competitive binding, fluorescence polarization
# Procedure: To evaluate the AR inhibition activities of Zeta55, an AR luciferase activity assay was performed (Table 1 and Supplementary Figure 1). […]. To evaluate the HDAC inhibition activities of Zeta55, fluorescent-based HDAC assays were performed (Table 1 and Supplementary Figure 3). […]. Both compounds seem ineffective against HDAC4.
# Supplementary Figure 1. […]
# polarization assay. Test compounds were incubated with recombinant AR-LBD (GST) and the fluorescence polarization (mP) was measured
# at an excitation wavelength of 485 nm and emission wavelength of 535 nm. […]
# HDAC4 = molecular target: T2, HDAC4 (Homo sapiens, UniProt P56524); assay: fluorescent-based HDAC assay; format: biochemical
# T2 construct: purchased BPS Bioscience
# Procedure: (§1) Commercial fluorescent assay kits were used to measure the activities of HDAC (BPS Bioscience). Briefly, the tested compounds were diluted in DMSO into a 96-well plate, and then assay buffer, HDAC, and substrate were added. The plate was incubated at 37° C for 30 minutes for enzymatic reactions, and the developer was added. After 10 minutes of incubation, the generated fluorescence was measured at an excitation of 380 nm and an emission of 460 nm.
# HDAC3 = molecular target: T3, HDAC3 (Homo sapiens, UniProt O15379); assay: fluorescent-based HDAC assay; format: biochemical
# T3 construct: purchased BPS Bioscience
# Procedure: as §1
# HDAC1 = molecular target: T4, HDAC1 (Homo sapiens, UniProt Q13547); assay: fluorescent-based HDAC assay; format: biochemical
# T4 construct: purchased BPS Bioscience
# Procedure: as §1
# T4 sequence (Q13547 whole entry): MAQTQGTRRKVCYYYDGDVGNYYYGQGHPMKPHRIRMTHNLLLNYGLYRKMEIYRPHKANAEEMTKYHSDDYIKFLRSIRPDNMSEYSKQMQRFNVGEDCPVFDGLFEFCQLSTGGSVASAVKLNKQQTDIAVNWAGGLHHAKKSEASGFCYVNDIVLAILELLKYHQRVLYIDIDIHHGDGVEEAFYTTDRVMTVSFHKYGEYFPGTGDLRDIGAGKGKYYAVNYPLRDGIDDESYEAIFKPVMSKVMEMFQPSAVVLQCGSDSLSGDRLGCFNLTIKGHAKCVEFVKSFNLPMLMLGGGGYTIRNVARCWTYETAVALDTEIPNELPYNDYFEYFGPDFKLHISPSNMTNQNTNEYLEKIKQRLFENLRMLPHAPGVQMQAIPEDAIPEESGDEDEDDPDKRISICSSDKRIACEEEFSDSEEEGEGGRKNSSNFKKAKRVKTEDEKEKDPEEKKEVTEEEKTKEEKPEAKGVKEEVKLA
# T3 sequence (O15379 whole entry): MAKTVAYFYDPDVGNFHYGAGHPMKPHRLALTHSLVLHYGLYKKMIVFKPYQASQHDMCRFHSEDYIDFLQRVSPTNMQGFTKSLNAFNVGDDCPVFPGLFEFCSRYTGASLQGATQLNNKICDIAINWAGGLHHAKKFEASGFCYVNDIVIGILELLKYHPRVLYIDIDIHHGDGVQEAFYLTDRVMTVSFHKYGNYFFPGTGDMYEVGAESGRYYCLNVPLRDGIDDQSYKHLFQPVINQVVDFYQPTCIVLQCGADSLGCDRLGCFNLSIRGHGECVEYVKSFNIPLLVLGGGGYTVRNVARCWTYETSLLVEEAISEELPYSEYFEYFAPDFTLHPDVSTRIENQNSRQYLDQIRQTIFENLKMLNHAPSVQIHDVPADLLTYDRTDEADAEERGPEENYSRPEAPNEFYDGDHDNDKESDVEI
# T3 sequence (Q9Y618 395-489 partner limits assumed): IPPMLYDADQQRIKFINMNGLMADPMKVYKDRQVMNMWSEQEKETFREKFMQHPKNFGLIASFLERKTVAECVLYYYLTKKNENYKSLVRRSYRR
# T2 sequence (P56524 whole entry): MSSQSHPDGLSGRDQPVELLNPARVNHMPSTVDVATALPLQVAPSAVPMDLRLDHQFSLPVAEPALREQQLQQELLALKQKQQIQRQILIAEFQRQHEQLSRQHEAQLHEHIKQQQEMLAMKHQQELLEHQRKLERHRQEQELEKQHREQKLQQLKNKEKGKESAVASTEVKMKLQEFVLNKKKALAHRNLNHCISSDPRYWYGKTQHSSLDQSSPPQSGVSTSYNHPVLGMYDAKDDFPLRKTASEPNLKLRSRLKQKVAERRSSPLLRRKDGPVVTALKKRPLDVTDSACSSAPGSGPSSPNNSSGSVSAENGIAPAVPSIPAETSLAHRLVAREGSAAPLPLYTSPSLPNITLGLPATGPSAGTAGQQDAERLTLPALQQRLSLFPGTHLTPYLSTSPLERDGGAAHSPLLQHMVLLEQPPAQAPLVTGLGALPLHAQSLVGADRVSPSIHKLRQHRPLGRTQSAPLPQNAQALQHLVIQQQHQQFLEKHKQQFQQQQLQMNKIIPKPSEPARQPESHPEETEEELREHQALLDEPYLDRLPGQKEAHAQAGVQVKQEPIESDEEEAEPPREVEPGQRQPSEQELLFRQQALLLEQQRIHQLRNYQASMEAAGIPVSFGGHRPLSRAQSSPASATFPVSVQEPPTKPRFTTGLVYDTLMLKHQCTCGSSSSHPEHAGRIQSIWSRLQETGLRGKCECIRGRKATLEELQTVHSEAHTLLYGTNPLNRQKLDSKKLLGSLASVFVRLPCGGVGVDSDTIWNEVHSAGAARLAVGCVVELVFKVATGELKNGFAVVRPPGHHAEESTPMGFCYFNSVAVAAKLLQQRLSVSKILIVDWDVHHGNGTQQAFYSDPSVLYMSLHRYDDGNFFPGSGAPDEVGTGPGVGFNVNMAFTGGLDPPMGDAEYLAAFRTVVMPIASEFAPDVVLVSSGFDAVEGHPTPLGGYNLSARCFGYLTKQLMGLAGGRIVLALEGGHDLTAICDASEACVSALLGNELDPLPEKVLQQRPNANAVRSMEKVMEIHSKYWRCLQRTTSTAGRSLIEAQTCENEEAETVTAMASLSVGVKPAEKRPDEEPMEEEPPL
compound,measurement,setting,value
N#Cc1ccc(N2C(=O)C3(CCC3)N(c3ccc(C(=O)NO)c(F)c3)C2=S)cc1C(F)(F)F [Zeta55],subcellular localization of AR,AR,distributed in both cytoplasm and nucleus
same,DHT-induced endogenous mRNA and protein expression of PSA,PSA,significantly suppressed
same,AR binding affinity relative to MDV3100,AR-LBD,60%
same,IC50,HDAC4,> 20 µM
same,IC50,HDAC3,> 20 µM
same,IC50,HDAC1,> 20 µM
